PMC10974743, “Design, Synthesis, and Biological Evaluation of Novel Phenoxy Acetic Acid Derivatives as Selective COX-2 Inhibitors Coupled with Comprehensive Bio-Pharmacological Inquiry, Histopathological Profiling, and Toxicological Scrutiny” (Molecules, 2024)
“Also recorded” adds a separate entry of the source. Marks after values point to notes of the source that are not given here. Values belong to the molecule of their own block, whether it stands above or below them.

What was measured:
[1] = tested on: carrageenan-induced paw edema; assay: Carrageenan paw edema test (paw thickness, paw weight); details: for Paw thickness difference: oral; for Paw thickness difference / Paw Weight Increase: mean ± SD, n = 6; for Percentage of inhibition of paw thickness / Inhibition of percentage of paw weight increase: vs carrageenan group; for Paw Weight Increase: right vs left paw, after 5 h
Experimental: The carrageenan paw edema test was conducted following established procedures as detailed (Supplementary Materials, page 53).
The carrageenan paw edema test was conducted following established procedures. In summary, seventy-two rats were randomly assigned to twelve groups, each comprising six rats.
These groups included normal controls, carrageenan controls (both receiving the vehicle; 1%
Acute inflammation was induced in the right hind paws of all rats one hour after oral administration of the respective compounds or vehicle. This was achieved by injecting a freshly prepared 0.1 mL carrageenan suspension (1% in normal saline) subplantarly into the right hind paw, except for the normal control group, which received a saline injection. Paw thickness was measured hourly (Ct) until the fifth hour (C5) post-carrageenan injection (C0). The hourly increase in paw thickness (paw thickness difference) was calculated by subtracting the initial measurement (C0) from the thickness at each hour (Ct), and the results were presented as the mean increase in paw thickness (mm). To evaluate anti-inflammatory effects, the percentage of inhibition for each standard and test compound was determined using the formula: percentage of inhibition (%) = [(Paw thickness difference of carrageenan group - Paw thickness difference of treated)/ Paw thickness difference of carrageenan group] × 100. […] The paws were then excised and weighed (both left and right). The percentage of weight increase between the left and right paws of each animal was calculated using the equation: Percentage of weight increase = [(Weight of the right paw - Weight of the left paw) / Weight of the left paw] ×100.

[2] = tested on: gastric mucosa; assay: Evaluation of ulcerogenic effects (macroscopic scores and gastric histopathology); details: for Gastric mucosa histopathological finding: H&E staining; for Ulcer Number Score / Ulcer Severity Score: mean ± SD; for Ulcer Number Score: n = 6; for Ulcer Severity Score: n = 6, scale 0 to 5
Experimental: The assessment of ulcerogenic effects was conducted following established procedures [42, 57]
Following the experimental period, the animals were euthanized using pentobarbital sodium (100 mg/kg), and blood was collected via jugular vein exsanguination for later evaluation of liver and kidney function, and subsequently sacrificed by cervical dislocation. […] Following this, the animals' stomachs were removed, inflated, and opened along the greater curvature to evaluate ulcerogenic effects.
B: Ulcer lesion severity scoring system
2.5 More than 10 small ulcers
3 1 marked ulcer plus 0 to 4 small ulcers
3.5 1 marked ulcer plus 5 or more small ulcers
4 2 marked ulcers plus 0 to 4 small ulcers
4.5 2 marked ulcers plus 5 or more small ulcers
5 3 or more marked ulcers
The statistical analysis of the data was conducted using GraphPad Prism 9.5.1 Demo
(GraphPad Software, San Diego, CA). One -way analysis of variance (ANOVA) was utilized to
evaluate differences among the various groups, except for paw edema volume, which un derwent
analysis using two -way ANOVA. Post -hoc analysis was performed using Tukey's multiple
significance set at P < 0.05

[3] = tested on: paw tissue, carrageenan paw edema model; assay: Histopathological examination of paws, inflammatory cell infiltration score; format: in vivo, rats; details: for Paw histopathological finding: H&E staining, carrageenan paw edema; for Reduction in inflammatory cell infiltration score: vs carrageenan group, paw, 5 hours
Experimental: The histopathological assessments were performed according to the following procedures (Supplementary Materials, page 54). […]
Histopathological examination
Thirty-six rats were separated into six groups of six rats each for histological assessment […]
groupings consisted of a control group, a carrageenan group, two groups for the reference drugs […]
protocols that were utilized in the in-vivo anti-inflammatory activity test were used. After a duration of 5 hours, the animals were euthanized, and their left paws were amputated. The paws were preserved in 10% neutral buffered formalin, trimmed, washed, dehydrated in increasing concentrations of ethyl alcohol, clarified in xylene, and ultimately embedded in paraffin. They were then sliced into 4-6µ thick slices, stained with Hematoxylin and Eosin, and examined under a light microscope. A scoring system was used to evaluate the degree of inflammation, dividing it into six categories ranging from 0 indicating no inflammation to 5 indicating severe inflammation.
Each score corresponded to a certain level of inflammation: 0 for no inflammation, 1 for mild inflammation, 2 for mild to moderate inflammation, 3 for moderate inflammation, 4 for moderate to severe inflammation, and 5 for severe inflammation.

[4] = Assessment of liver and kidney function (serum ALT, AST, creatinine, urea); format: in vivo, rats; design: Urea: unit not given here; details: mean ± SD; for ALT / AST / Urea / AST/ALT: n = 6; for Creatinine: n = 6, in mg/dL (unit assumed)
Experimental: These assessments were conducted following the manufacturer’s instructions (Supplementary Materials, page 55).
In-vivo anti-inflammatory activity
(§1) cervical dislocation. […] The percentage
(§2) Weight of the left paw] ×100.
Assessment of inflammatory biomarkers using ELISA

[5] = tested on: PGE2; assay: PGE2 content of paw exudate by ELISA, carrageenan paw edema model; format: in vivo, Sprague Dawley rats; details: vs carrageenan group
Experimental: (§3) ELISA assessment assays were conducted as cited (Supplementary Materials, page 53).
(§4) In-vivo anti-inflammatory activity […]
as §1, §2
(§5) Assessment of inflammatory biomarkers using ELISA […]
(§6) content, using enzyme -linked immunosorbent assay (ELISA). The ELISA kits were purchased from CLOUD -CLONE CORP (CCC, USA) (Cat# SEA133Ra) and MyBioSource company (British Columbia, Canada) (Cat# MBS730592) respectively, and the assays were performed following the manufacturer' s instructions. Additionally, the protein content of the exudates was determined using the Bradford method.

[6] = tested on: nociceptive responses on hot plate; assay: Hot plate latency test (analgesic activity); format: in vivo, rats; details: for Hot plate latency period: plate 50 °C, mean ± SD, n = 6
Experimental: The hot plate latency test was performed according to the following procedures (Supplementary Materials, page 54). […]
In summary, thirty rats
The normal control group received 1% CMC, while the remaining groups were administered their respective reference or test compounds. Each rat was gently positioned on a heated plate set at 50 ◦C. The latency period for nociceptive responses, such as paw licking or jumping off the hot plate, was recorded at 30-, 60-, 90-, and 120 minutes post-administration of the reference drugs, test […]

[7] = tested on: TNF-α; assay: TNF-α content of paw exudate by ELISA, carrageenan paw edema model; format: in vivo, Sprague Dawley rats; details: vs carrageenan group
Experimental: as §3, §4, §1, §2, §5, §6

[8] = target: T1, ovine COX-1 (Ovis aries, UniProt P05979); assay: In vitro COX-1 inhibition assay (Cayman colorimetric COX inhibitor screening kit)
T1 sequence (P05979 25-600): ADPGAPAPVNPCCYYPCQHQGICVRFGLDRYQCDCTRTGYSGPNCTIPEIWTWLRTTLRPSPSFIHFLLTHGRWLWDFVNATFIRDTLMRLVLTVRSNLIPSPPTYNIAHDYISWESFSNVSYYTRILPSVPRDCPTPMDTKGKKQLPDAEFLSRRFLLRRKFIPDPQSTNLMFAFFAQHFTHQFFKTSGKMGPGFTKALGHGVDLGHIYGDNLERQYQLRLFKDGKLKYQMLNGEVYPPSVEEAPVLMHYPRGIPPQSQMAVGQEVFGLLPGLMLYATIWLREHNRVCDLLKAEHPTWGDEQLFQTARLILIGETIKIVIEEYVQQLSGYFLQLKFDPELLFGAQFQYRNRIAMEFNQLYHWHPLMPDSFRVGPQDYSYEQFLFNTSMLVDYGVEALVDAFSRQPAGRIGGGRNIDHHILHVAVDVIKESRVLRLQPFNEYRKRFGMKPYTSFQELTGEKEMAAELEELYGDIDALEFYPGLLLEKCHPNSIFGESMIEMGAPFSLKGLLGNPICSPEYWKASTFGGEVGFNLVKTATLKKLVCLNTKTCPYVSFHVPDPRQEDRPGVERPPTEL
Experimental: (§7) The in vitro enzyme assays were performed at the Biochemistry Department, Cairo
(§8) General Hospital, Egypt. Cayman® colorimetric COX (ovine) inhibitor screening assay kit (Item
(§9) enzymes in presence of all newly compounds. Generally, this kit is dependent on the reductive
(§10) reaction of COX. A specific antibody binds to PGH2 produced by COX and is further quantified
(§11) by the ELISA technique as previously reported. After that, the selectivity index (SI) was calculated
as the following equation:
𝐒𝐞𝐥𝐞𝐜𝐭𝐢𝐯𝐢𝐭𝐲 𝐢𝐧𝐝𝐞𝐱 (𝐒𝐈) = 𝐈𝐂₅₀𝐨𝐟 𝐂𝐎𝐗 − 𝟏

[9] = target: T2, human COX-2 (Homo sapiens, UniProt P35354); assay: In vitro COX-2 inhibition assay (Cayman colorimetric COX inhibitor screening kit); details: for IC50: COX-2 IC50, mean ± SEM, n = 3
T2 sequence (P35354 18-604): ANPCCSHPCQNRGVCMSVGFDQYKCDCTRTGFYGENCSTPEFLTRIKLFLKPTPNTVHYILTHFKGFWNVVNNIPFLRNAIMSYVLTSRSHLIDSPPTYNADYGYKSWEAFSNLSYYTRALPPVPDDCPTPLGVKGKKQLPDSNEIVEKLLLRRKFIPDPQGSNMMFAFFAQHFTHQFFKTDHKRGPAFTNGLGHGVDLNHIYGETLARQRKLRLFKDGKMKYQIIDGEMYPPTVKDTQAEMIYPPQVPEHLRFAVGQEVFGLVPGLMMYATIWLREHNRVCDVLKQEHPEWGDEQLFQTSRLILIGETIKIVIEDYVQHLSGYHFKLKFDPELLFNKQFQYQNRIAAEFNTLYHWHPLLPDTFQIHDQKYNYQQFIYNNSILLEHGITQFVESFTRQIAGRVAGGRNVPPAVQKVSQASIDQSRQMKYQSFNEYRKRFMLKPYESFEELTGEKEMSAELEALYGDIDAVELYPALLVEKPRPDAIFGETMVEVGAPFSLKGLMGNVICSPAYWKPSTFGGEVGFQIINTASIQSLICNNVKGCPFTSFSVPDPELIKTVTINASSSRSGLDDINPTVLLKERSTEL
Experimental: as §7, §8, §9, §10, §11
as the following equation:
𝐒𝐞𝐥𝐞𝐜𝐭𝐢𝐯𝐢𝐭𝐲 𝐢𝐧𝐝𝐞𝐱 (𝐒𝐈) = 𝐈𝐂₅₀𝐨𝐟 𝐂𝐎𝐗 − 𝟏

SMILES: Cc1ccc(-c2cc(C(F)(F)F)nn2-c2ccc(S(N)(=O)=O)cc2)cc1 [Celecoxib, celecoxib, reference compound]
Paw thickness difference ([1]; 1st h after carrageenan): 1.4 ± 0.38 mm
Percentage of inhibition of paw thickness ([1]; 1st h): 29.31%
Paw thickness difference ([1]; 2nd h after carrageenan): 2.36 ± 0.51 mm
Percentage of inhibition of paw thickness ([1]; 2nd h): 28.34%
Paw thickness difference ([1]; 3rd h after carrageenan): 2.83 ± 0.43 mm
Percentage of inhibition of paw thickness ([1]; 3rd h): 33%
Paw thickness difference ([1]; 4th h after carrageenan): 3.01 ± 0.57 mm
Percentage of inhibition of paw thickness ([1]; 4th h): 40.39%
Paw thickness difference ([1]; 5th h after carrageenan): 3.10 ± 0.23 mm
Percentage of inhibition of paw thickness ([1]; 5th h): 41.65%
Paw Weight Increase [1]: 29.95 ± 2.20 ^ab %
Gastric mucosa histopathological finding [2]: ulcer formation with eroded gastric mucosa; also recorded: developed ulcers with degraded gastric mucosa
Ulcer Number Score [2]: 1.00 ± 0.63
Ulcer Severity Score [2]: 0.75 ± 0.52
Paw histopathological finding [3]: dermal infiltration by high number of inflammatory cells mainly neutrophils and lymphocytes; also recorded: significant dermal infiltration by a large quantity of inflammatory cells
ALT [4]: 92.94 ± 5.00 IU/L
AST [4]: 101.23 ± 10.04 IU/L
Urea [4]: 26.28 ± 3.11
Creatinine [4]: 0.73 ± 0.03
Reduction of PGE2 exudate content [5]: 60.16%
Hot plate latency period ([6]; 30 min post-administration): 8.39 ± 0.22 ^a
Hot plate latency period ([6]; 60 min post-administration): 9.95 ± 0.23 ^a
Hot plate latency period ([6]; 90 min post-administration): 11.63 ± 0.60 ^a
Increase in latency period ([6]; 120 min mark): 46.70%
Hot plate latency period ([6]; 120 min post-administration): 13.88 ± 0.41 ^a
Reduction of TNF-α exudate content [7]: 63.52%

IC50 [8]: 8000 ± 200 nM
SI (COX-2 selectivity index) ([9]; COX-1 (IC50)/COX-2 (IC50)): 133.34
IC50 [9]: 60 ± 10 nM
SMILES: O=C(O)COc1ccc(Br)cc1C=NNC(=O)c1ccc(Cl)cc1 [Compound 5f, 2-(4-Bromo-2-((2-(4-chlorobenzoyl)hydrazineylidene)methyl)phenoxy)acetic acid]
Paw thickness difference ([1]; 1st h after carrageenan): 0.83 ± 0.15 mm
Percentage of inhibition of paw thickness ([1]; 1st h): 58.11%
Paw thickness difference ([1]; 2nd h after carrageenan): 1.65 ± 0.29 mm
Percentage of inhibition of paw thickness ([1]; 2nd h): 49.85%
Paw thickness difference ([1]; 3rd h after carrageenan): 2.32 ± 0.17 mm
Percentage of inhibition of paw thickness ([1]; 3rd h): 45.05%
Paw thickness difference ([1]; 4th h after carrageenan): 2.68 ± 0.12 mm
Percentage of inhibition of paw thickness ([1]; 4th h): 46.9%
Paw thickness difference ([1]; 5th h after carrageenan): 2.84 ± 0.13 mm
Paw Weight Increase [1]: 29.85 ± 3.88 ^ab %
Inhibition of percentage of paw weight increase [1]: 68.26%
Gastric mucosa histopathological finding [2]: normal histological structure of gastric mucosa; also recorded: normal histological structure of the stomach mucosa
Ulcer Number Score [2]: 0.50 ± 0.55 ^d
Ulcer Severity Score [2]: 0.33 ± 0.41 ^d
Paw histopathological finding [3]: infiltration by a few numbers of inflammatory cells mainly eosinophils and lymphocytes; also recorded: dermal edema with limited infiltration of inflammatory cells
Reduction in inflammatory cell infiltration score [3]: 70.37%
ALT [4]: 92.76 ± 3.83 IU/L
AST [4]: 93.69 ± 5.26 IU/L
AST/ALT [4]: 1.01 ± 0.08
Urea [4]: 26.37 ± 2.48
Creatinine [4]: 0.67 ± 0.04
Reduction of PGE2 exudate content [5]: 60.58%
Increase in latency period ([6]; 30 min mark): 39.43%
Hot plate latency period ([6]; 30 min post-administration): 8.99 ± 0.38 ^abc
Hot plate latency period ([6]; 60 min post-administration): 10.59 ± 0.3 ^abc
Hot plate latency period ([6]; 90 min post-administration): 12.48 ± 0.65 ^ab
Increase in latency period ([6]; 120 min mark): 49.50%
Hot plate latency period ([6]; 120 min post-administration): 14.15 ± 0.38 ^a
Reduction of TNF-α exudate content [7]: 61.04%

IC50 [8]: 5930 ± 120 nM
IC50 [9]: 60 ± 10 nM
SMILES: O=C(O)COc1ccc(Br)cc1C=NNC(=O)Cc1ccccc1 [Compound 7b, 2-(4-Bromo-2-((2-(2-phenylacetyl)hydrazineylidene)methyl)phenoxy)acetic acid]
Paw thickness difference ([1]; 1st h after carrageenan): 0.65 ± 0.16 mm
Percentage of inhibition of paw thickness ([1]; 1st h): 67.23%
Paw thickness difference ([1]; 2nd h after carrageenan): 1.08 ± 0.21 mm
Percentage of inhibition of paw thickness ([1]; 2nd h): 67.11%
Paw thickness difference ([1]; 3rd h after carrageenan): 1.64 ± 0.13 mm
Percentage of inhibition of paw thickness ([1]; 3rd h): 61.23%
Paw thickness difference ([1]; 4th h after carrageenan): 1.90 ± 0.19 mm
Percentage of inhibition of paw thickness ([1]; 4th h): 62.42%
Paw thickness difference ([1]; 5th h after carrageenan): 1.95 ± 0.19 mm
Paw Weight Increase [1]: 33.07 ± 1.88 ^ab %
Inhibition of percentage of paw weight increase [1]: 64.84%
Gastric mucosa histopathological finding [2]: infiltration of gastric mucosa by a few numbers of mononuclear inflammatory cells
Ulcer Number Score [2]: 0.67 ± 0.52
Ulcer Severity Score [2]: 0.42 ± 0.38
Paw histopathological finding [3]: dermal infiltration by a moderate number of mononuclear inflammatory cells; also recorded: moderate infiltration of mononuclear inflammatory cells in the dermis
Reduction in inflammatory cell infiltration score [3]: 62.96%
ALT [4]: 89.13 ± 8.53 IU/L
AST [4]: 97.59 ± 6.19 IU/L
AST/ALT [4]: 1.10 ± 0.12
Urea [4]: 27.16 ± 1.53
Creatinine [4]: 0.68 ± 0.05
Reduction of PGE2 exudate content [5]: 57.07%
Increase in latency period ([6]; 30 min mark): 37.67%
Hot plate latency period ([6]; 30 min post-administration): 8.88 ± 0.29 ^ac
Hot plate latency period ([6]; 60 min post-administration): 10.35 ± 0.35 ^ac
Hot plate latency period ([6]; 90 min post-administration): 12.09 ± 0.29 ^ac
Increase in latency period ([6]; 120 min mark): 44.90%
Hot plate latency period ([6]; 120 min post-administration): 13.71 ± 0.31 ^a
Reduction of TNF-α exudate content [7]: 64.88%
